Ends that are not written are not given here.
How the values were obtained:
[1] = system: L. lactis HP; assay: Agar well diffusion assay with purified peptide; type: cell-based, Lactococcus lactis; settings: for 100 mg L^−1 Agar Diffusion Zone Area: purified peptide 100 mg L^−1, 50 µl per well, 1.5% agar seeded 0.5% with L. lactis HP, 16 h; for 100 mg L^−1 Agar Diffusion Relative to WT (%): purified peptide 100 mg L^−1 vs L. lactis HP, zone area relative to nisin A
[2] = system: S. agalactiae ATCC 13813; assay: Minimum inhibitory concentration (MIC) assay in broth; type: cell-based, Streptococcus agalactiae; settings: for MIC Specific Activity as % of WT: broth, BSA-pretreated 96-well plates, triplicate, 2-fold dilutions from 7.5 µM, 10^5 cfu/ml, 16 h
Method: (§1) Minimum inhibitory concentration assays were carried out in triplicate using 96-well plates (Sarstedt) pretreated with bovine serum albumin (BSA) as previously described. Wild type nisin and nisin derivatives were adjusted to a 500 nM (when using L. lactis as a target) or 7.5 µM (all other indicators) starting concentration and 2-fold serial dilutions of each peptide were carried out. An overnight of the target strain was subcultured and incubated to an OD600 nm of 0.5 before being diluted to give a final inoculum of 10^5cfu/ml in 200μl. The plates were incubated at an appropriate temperature and inspected after 16 hours. The MIC was determined as the lowest concentration at which no growth was visible.

[3] = system: L. lactis HP; assay: as above; type: cell-based, Lactococcus lactis; settings: BSA-pretreated 96-well plates, triplicate, 2-fold dilutions from 500 nM, 10^5 cfu/ml, 16 h
Method: as §1

[4] = system: M. smegmatis MC2155; assay: Agar well diffusion assay with purified peptide; type: cell-based, Mycobacterium smegmatis; settings: for 100 mg L^−1 Agar Diffusion Zone Area: purified peptide 100 mg L^−1, 50 µl per well, 0.75% agar seeded 0.5% with 40 h culture of M. smegmatis MC2155, 40 h; for 100 mg L^−1 Agar Diffusion Relative to WT (%): purified peptide 100 mg L^−1 vs M. smegmatis MC2155, zone area relative to nisin A
[5] = system: S. aureus RF122; assay: Agar well diffusion assay with purified peptide; type: cell-based, Staphylococcus aureus; settings: for 100 mg L^−1 Agar Diffusion Zone Area: purified peptide 100 mg L^−1, 50 µl per well, 1.5% agar seeded 0.5% with S. aureus RF122, 16 h; for 100 mg L^−1 Agar Diffusion Relative to WT (%): purified peptide 100 mg L^−1 vs S. aureus RF122, zone area relative to nisin A
[6] = system: S. agalactiae ATCC 13813; assay: Deferred antagonism assay of producer strains; type: cell-based, Streptococcus agalactiae; settings: for Deferred Antagonism Zone Area: L. lactis NZ9800 producer spotted (approx. 3 µl) on GM17 agar, 16 h 30°C, overlaid with 0.75% agar seeded 0.5% with S. agalactiae ATCC 13813, area of zone minus area of spot; for Deferred Antagonism Relative to WT (%): producer strain vs S. agalactiae ATCC 13813, zone area relative to wild type nisin A producer
[7] = system: S. aureus RF122; assay: Deferred antagonism assay of producer strains; type: cell-based, Staphylococcus aureus; settings: for Deferred Antagonism Relative to WT (%): producer strain vs S. aureus RF122, zone area relative to wild type nisin A producer; for Deferred Antagonism Zone Area: L. lactis NZ9800 producer spotted (approx. 3 µl) on GM17 agar, 16 h 30°C, overlaid with 0.75% agar seeded 0.5% with S. aureus RF122, area of zone minus area of spot
[8] = system: L. lactis HP; assay: Deferred antagonism assay of producer strains; type: cell-based, Lactococcus lactis; settings: for Deferred Antagonism Zone Area: L. lactis NZ9800 producer spotted (approx. 3 µl) on GM17 agar, 16 h 30°C, overlaid with 0.75% agar seeded 0.5% with L. lactis HP, area of zone minus area of spot; for Deferred Antagonism Relative to WT (%): producer strain vs L. lactis HP, zone area relative to wild type nisin A producer
[9] = system: M. smegmatis MC2155; assay: Deferred antagonism assay of producer strains; type: cell-based, Mycobacterium smegmatis; settings: for Deferred Antagonism Zone Area: L. lactis NZ9800 producer spotted (approx. 3 µl) on GM17 agar, incubated 40 h, overlaid with 0.75% agar seeded 0.5% with M. smegmatis MC2155, area of zone minus area of spot; for Deferred Antagonism Relative to WT (%): producer strain vs M. smegmatis MC2155, zone area relative to wild type nisin A producer
[10] = system: S. agalactiae ATCC 13813; assay: Agar well diffusion assay with purified peptide; type: cell-based, Streptococcus agalactiae; settings: for 100 mg L^−1 Agar Diffusion Zone Area: purified peptide 100 mg L^−1, 50 µl per well, 1.5% agar seeded 0.5% with S. agalactiae ATCC 13813, 16 h; for 100 mg L^−1 Agar Diffusion Relative to WT (%): purified peptide 100 mg L^−1 vs S. agalactiae ATCC 13813, zone area relative to nisin A
[11] = system: S. aureus RF122; assay: Minimum inhibitory concentration (MIC) assay in broth; type: cell-based, Staphylococcus aureus; settings: BSA-pretreated 96-well plates, triplicate, 2-fold dilutions from 7.5 µM, 10^5 cfu/ml, 16 h
Method: as §1

Substance | 100 mg L^−1 Agar Diffusion Zone Area [1] [mm^2] | MIC Specific Activity as % of WT [2] [%] | MIC Specific Activity as % of WT [3] [%] | 100 mg L^−1 Agar Diffusion Zone Area [4] [mm^2] | 100 mg L^−1 Agar Diffusion Relative to WT (%) [4] [%] | 100 mg L^−1 Agar Diffusion Zone Area [5] [mm^2] | 100 mg L^−1 Agar Diffusion Relative to WT (%) [5] [%] | Deferred Antagonism Zone Area [6] [mm^2] | Deferred Antagonism Relative to WT (%) [6] [%] | Deferred Antagonism Relative to WT (%) [7] [%] | Deferred Antagonism Zone Area [8] [mm^2] | Deferred Antagonism Relative to WT (%) [8] [%] | Deferred Antagonism Zone Area [9] [mm^2] | Deferred Antagonism Relative to WT (%) [9] [%] | 100 mg L^−1 Agar Diffusion Zone Area [10] [mm^2] | 100 mg L^−1 Agar Diffusion Relative to WT (%) [10] [%] | MIC Specific Activity as % of WT [11] [%] | Deferred Antagonism Zone Area [7] [mm^2] | 100 mg L^−1 Agar Diffusion Relative to WT (%) [1] [%] | Improvement in broth based specific activity relative to the natural peptide ([2]; broth based specific activity (MIC) assay)
NAI: nisin A derivative with hinge region NAI (ITSISLCTPGCKTGALMGCNAITATCHCSIHVSK; also: nisin-type thioether rings and dehydrated residues, not located; UniProt P13068 24-57, looked up, variant M21A K22I) | 371.32±19.60 | 200 | 100 | 78.50±8.16 | 115.8 | 129.75±11.36 | 130.61 | 318.81±7.915 | 140.72 | 118.02 | 439.52±47.88 | 146.71 | 270.04±58.30 | 526.26 | 291.52±8.46 | 118.36 | 25 |  |  | 
Nisin A (ITSISLCTPGCKTGALMGCNMKTATCHCSIHVSK; not fully specified; Lantibiotic nisin-A; UniProt P13068 24-57, looked up) [WT, 34 amino acid lantibiotic with three dehydrated amino acids and five thioether rings; hinge N20-M21-K22, reference compound] | 267.69±9.21 |  |  | 67.79±4.308 |  | 99.34±12.33 |  | 226.55±2.96 |  |  | 299.58±7.04 |  | 51.31±10.08 |  | 246.31±2.74 |  |  | 138.31±3.36 |  | 
AAA: nisin A derivative with hinge region consisting of AAA (rational design) (ITSISLCTPGCKTGALMGCAAATATCHCSIHVSK; not fully specified; also: nisin-type thioether rings and dehydrated residues, not located; UniProt P13068 24-57, looked up, variant N20A M21A K22A) | 416.00±17.99 | 200 | 100 | 149.24±4.776 | 220.15 | 155.77±3.30 | 156.81 | 401.32±15.62 | 177.14 | 211.29 | 492.83±40.27 | 164.51 | 277.65±60.42 | 541.09 | 305.58±2.39 | 124.06 | 25 | 292.24±11.46 | 155.41 | two-fold improvement
SAA: nisin A derivative with hinge region consisting of SAA (rational design) (ITSISLCTPGCKTGALMGCSAATATCHCSIHVSK; also: nisin-type thioether rings and dehydrated residues, not located; UniProt P13068 24-57, looked up, variant N20S M21A K22A) | 344.76±18.50 | 100 | 50 | 101.19±11.510 | 149.27 | 130.60±4.46 | 131.47 | 407.98±18.452 | 180.08 | 170.83 | 483.14±33.89 | 161.28 | 303.85±59.93 | 592.15 | 301.62±8.18 | 122.46 | 25 | 236.28±13.53 |  | 
SLS: nisin A derivative with hinge region SLS (ITSISLCTPGCKTGALMGCSLSTATCHCSIHVSK; also: nisin-type thioether rings and dehydrated residues, not located; UniProt P13068 24-57, looked up, variant N20S M21L K22S) | 321.93±22.43 | 25 | 25 | 119.56±8.59 | 176.36 | 98.82±10.14 | 99.47 | 209.45±17.11 | 92.45 | 111.29 | 370.75±28.28 | 123.76 | 230.31±20.31 | 448.84 | 226.05±4.10 | 91.78 | <6 | 153.93±7.15 | 120.26 | 

Source: paper PMC3823697, “Intensive Mutagenesis of the Nisin Hinge Leads to the Rational Design of Enhanced Derivatives” (PLoS ONE, 2013)
